The record followed here is patent US7964732B2, “Substituted bicyclocarboxyamide compounds” (Pfizer Inc., priority 2006, dated 2011).

The structures appear in SMILES notation. pIC50: −log10 of the molar value.

In this test the target is T1, human VR1 (Homo sapiens, UniProt Q8NER1).
T1 construct: host or cells: cells that express human VR1 receptors (cell type not specified)
T1 sequence (Q8NER1 whole entry): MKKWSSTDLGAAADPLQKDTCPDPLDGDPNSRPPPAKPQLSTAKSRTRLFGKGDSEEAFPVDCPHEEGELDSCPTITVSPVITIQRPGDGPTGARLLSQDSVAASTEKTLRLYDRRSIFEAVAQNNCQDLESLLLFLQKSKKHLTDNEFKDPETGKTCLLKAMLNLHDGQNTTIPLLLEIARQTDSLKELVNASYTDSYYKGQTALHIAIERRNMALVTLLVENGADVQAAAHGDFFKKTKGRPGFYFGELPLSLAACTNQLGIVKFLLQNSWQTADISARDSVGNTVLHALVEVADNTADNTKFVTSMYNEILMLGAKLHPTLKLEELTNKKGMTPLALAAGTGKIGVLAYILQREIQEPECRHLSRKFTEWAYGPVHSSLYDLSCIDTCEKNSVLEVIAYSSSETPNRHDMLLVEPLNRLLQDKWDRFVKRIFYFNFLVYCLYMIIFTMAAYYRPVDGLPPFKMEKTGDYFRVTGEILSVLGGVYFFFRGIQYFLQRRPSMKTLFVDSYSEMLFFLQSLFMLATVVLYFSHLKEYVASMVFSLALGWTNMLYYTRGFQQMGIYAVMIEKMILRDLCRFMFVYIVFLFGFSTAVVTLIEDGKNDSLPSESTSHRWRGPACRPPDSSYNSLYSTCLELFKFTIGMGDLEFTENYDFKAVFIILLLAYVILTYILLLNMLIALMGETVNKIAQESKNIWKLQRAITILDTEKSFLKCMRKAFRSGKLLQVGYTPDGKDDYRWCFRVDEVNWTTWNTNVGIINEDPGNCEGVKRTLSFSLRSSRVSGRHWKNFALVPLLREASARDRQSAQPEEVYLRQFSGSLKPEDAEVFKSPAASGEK
Nature of the test: Human VR1 antagonist assay (Ca2+ imaging assay using human VR1 highly expressing cells). The note with it: intracellular Ca2+ imaging (fura-2). Type of test: cell-based. An excerpt:
VR1 antagonistic activity can be determined by the Ca^2+ imaging assay using human VR1 highly expressing cells. The cells that highly express human VR1 receptors are obtainable from several different conventional methods. The one standard method is cloning from human Dorsal Root Ganglion (DRG) or kidney according to the methods such as described in the journal article; Nature, 389, pp 816-824, 1997. Alternatively VR1 receptors highly expressing human keratinocytes are also known and published in the journal article (Biochemical and Biophysical Research Communications, 291, pp 124-129, 2002). […] Furthermore, the method to up regulate human VR1 gene, which is usually a silent gene or don't produce detectable level of VR1 receptors, is also available to obtain propriety cells. Such genetic modification method was described in detail; Nat. Biotechnol., 19, pp 440-445, 2001.
The cells that express human VR1 receptors were maintained in culture flask at 37° C. in an environment containing 5% CO2 until use in the assay. The intracellular Ca^2+ imaging assay to determine VR1 antagonistic activities were done by following procedures.
The culture medium was removed from the flask and fura-2/AM fluorescent calcium indicator was added to the flask at a concentration of 5 μM in the medium. The flask was placed in CO2 incubator and incubated for 1 hour. Then the cells expressing the human VR1 receptors were detached from the flask follow by washing with phosphate buffer saline, PBS(−) and re-suspended in assay buffer. The 80 μl of aliquot of cell suspension (3.75×10^5 cells/ml) was added to the assay plate and the cells were spun down by centrifuge (950 rpm, 20° C., 3 minutes).
Compounds of the examples were tested in the Human VR1 antagonist assay described above.
The capsaicin-induced changes in the intracellular calcium concentration were monitored using FDSS 6000 (Hamamatsu Photonics, Japan), a fluorometric imaging system. The cell suspension in Krebs-Ringer HEPES (KRH) buffer (115 mM NaCl, 5.4 mM KCl, 1 mM MgSO4, 1.8 mM CaCl2, 11 mM D-Glucose, 25 mM HEPES, 0.96 mM Na2HPO4, pH 7.3) were pre-incubated with varying concentrations of the test compounds or KRH buffer (buffer control) for 15 minutes at room temperature under the dark condition. Then capsaicin solution, which gives 300 nM in assay mixture, was automatically added to the assay plate by the FDSS 6000.
The Acid-induced changes in the intracellular calcium concentration were monitored using FDSS 6000 (Hamamatsu Photonics, Japan), a fluorometric imaging system. The cell suspension in resting buffer (HBSS supplemented with 10 mM HEPES, pH 7.4) were pre-incubated with varying concentrations of the test compounds or resting buffer (buffer control) for 15 minutes at room temperature under the dark condition. The cells were automatically added the stimulating solution (HBSS supplemented with MES, final assay buffer pH5.8) by the FDSS 6000.
The monitoring of the changes in the fluorescence signals (λex=340 nm/380 nm, λem=510-520 nm) was initiated at 1 minute prior to the addition of capsaicin solution or acidic buffer and continued for 5 minute.
With `Cc1c(C(C)NC(=O)c2ccc3cc(C(C)(C)C)ccc3c2)cnn1C` (centres unmarked) [Example 24, 6-tert-butyl-N-[1-(1,5-dimethyl-1H-pyrazol-4-yl)ethyl]-2-naphthamide], the pIC50 is 7.64.

`Cc1nn(C)c(C)c1CNC(=O)c1ccc2cc(C(C)(C)C)ccc2c1` [Example 35, 6-tert-butyl-N-((1,3,5-trimethyl-1H-pyrazol-4-yl)methyl)-2-naphthamide] had a pIC50 of 5.73.

`Cc1c(C(C)NC(=O)c2ccc3cc(C(F)(F)F)ccc3c2)cnn1C` (centres unmarked) [Example 29, N-(1-(1,5-dimethyl-1H-pyrazol-4-yl)ethyl)-6-(trifluoromethyl)-2-naphthamide] showed a pIC50 of 6.72.

`Cc1[nH]ncc1C(C)NC(=O)c1ccc2nc(C(C)(C)C(F)(F)F)ccc2c1` (centres unmarked) [Example 9, N-[1-(5-methyl-1H-pyrazol-4-yl)ethyl]-2-(2,2,2-trifluoro-1,1-dimethylethyl)quinoline-6-carboxamide] showed a pIC50 of 6.49.

Consider `Cc1c(CNC(=O)c2ccc3cc(C(C)(C)C)ccc3n2)cnn1C` [Example 34, 6-tert-butyl-N-[(1,5-dimethyl-1H-pyrazol-4-yl)methyl]quinoline-2-carboxamide], for which the pIC50 is 6.60.

In turn, `C[C@@H](NC(=O)c1ccc2nc(C(C)(C)C(F)(F)F)ccc2c1)c1cnn(C)c1Cl` [Example 18a, (R)-N-(1-(5-chloro-1-methyl-1H-pyrazol-4-yl)ethyl)-2-(2,2,2-trifluoro-1,1-dimethylethyl)quinoline-6-carboxamide] had a pIC50 of 8.52.

For the molecule `Cc1c([C@@H](C)NC(=O)c2ccc3cc([C@@](C)(O)C(F)(F)F)ccc3c2)cnn1C` (single isomer, unassigned) [Example 32], the pIC50 is 7.28.

The molecule `CCC(NC(=O)c1ccc2cc(C(C)(C)C)ccc2c1)c1cnn(C)c1C` (centres unmarked) [Example 28, 6-tert-butyl-N-(1-(1,5-dimethyl-1H-pyrazol-4-yl)propyl)-2-naphthamide] had a pIC50 of 7.24.

Molecule `CCn1ncc(C(C)NC(=O)c2ccc3nc(C(C)(C)C(F)(F)F)ccc3c2)c1C` (centres unmarked) [Example 16, N-[1-(1-ethyl-5-methyl-1H-pyrazol-4-yl)ethyl]-2-(2,2,2-trifluoro-1,1-dimethylethyl)quinoline-6-carboxamide] gave a pIC50 of 7.54.

As to `C[C@@H](NC(=O)c1ccc2nc(C(C)(C)C(F)(F)F)ccc2c1)c1cnn(C)c1C#N` [Example 3, (R)-N-(1-(5-cyano-1-methyl-1H-pyrazol-4-yl)ethyl)-2-(2,2,2-trifluoro-1,1-dimethylethyl)quinoline-6-carboxamide], the pIC50 was 6.49.

In turn, `Cc1nn(C)cc1CNC(=O)c1ccc2cc(C(C)(C)C)ccc2c1` [Example 26, 6-tert-butyl-N-[(1,3-dimethyl-1H-pyrazol-4-yl)methyl]-2-naphthamide] showed a pIC50 of 6.35.

On to `Cn1cc(CNC(=O)c2ccc3cc(C(C)(C)C)ccc3c2)cn1` [Example 36], for which the pIC50 is 5.46. This pIC50 lies 0.89 log units lower than the previous one.

`Cc1c([C@@H](C)NC(=O)c2ccc3cc(C(C)(O)C(F)(F)F)ccc3c2)cnn1C` (mixture of isomers) [Example 31, N-[(1R)-1-(1,5-dimethyl-1H-pyrazol-4-yl)ethyl]-6-(2,2,2-trifluoro-1-hydroxy-1-methylethyl)-2-naphthamide] showed a pIC50 of 6.75.

Molecule `CCn1ncc(CNC(=O)c2ccc3nc(C(C)(C)C(F)(F)F)ccc3c2)c1C` [Example 15, N-[(1-ethyl-5-methyl-1H-pyrazol-4-yl)methyl]-2-(2,2,2-trifluoro-1,1-dimethylethyl)quinoline-6-carboxamide] gave a pIC50 of 7.14. Compared with the last molecule, the pIC50 is 0.39 log units higher.

`Cc1c(CNC(=O)c2ccc3nc(C(C)(C)C(F)(F)F)ccc3c2)cnn1C` [Example 2, N-[(1,5-dimethyl-1H-pyrazol-4-yl)methyl]-2-(2,2,2-trifluoro-1,1-dimethylethyl)quinoline-6-carboxamide] had a pIC50 of 6.58.

Regarding `Cc1c(CNC(=O)c2ccc3cc(C(C)(C)C)ccc3c2)cnn1C` [Example 27, 6-tert-butyl-N-[(1,5-dimethyl-1H-pyrazol-4-yl)methyl]-2-naphthamide], the pIC50 was 7.14.

The molecule `Cc1c([C@@H](C)NC(=O)c2ccc3cc(C4(C)CC4)ccc3c2)cnn1C` [Example 30, N-[(1R)-1-(1,5-dimethyl-1H-pyrazol-4-yl)ethyl]-6-(1-methylcyclopropyl)-2-naphthamide] gave a pIC50 of 7.70.

Molecule `Oc1cc2c(cc1O)CN(C(=S)NCCc1ccc(Cl)cc1)CCC2` [capsazepin, reference compound] showed a pIC50 of 6.34 to 6.63.

`Cc1c(C(C)NC(=O)c2ccc3cc(C(C)(C)O)ccc3c2)cnn1C` (centres unmarked) [Example 37, N-[1-(1,5-dimethyl-1H-pyrazol-4-yl)ethyl]-6-(1-hydroxy-1-methylethyl)-2-naphthamide]: the pIC50 was 6.00.

For the molecule `Cc1c([C@@H](C)NC(=O)c2ccc3nc(C4(C)CC4)ccc3c2)cnn1C` [Example 13, N-[(1R)-1-(1,5-dimethyl-1H-pyrazol-4-yl)ethyl]-2-(1-methylcyclopropyl) quinoline-6-carboxamide], the pIC50 is 6.50.

`Cc1c([C@@H](C)NC(=O)c2ccc3cc([C@](C)(O)C(F)(F)F)ccc3c2)cnn1C` [Example 32a, N-[(1R)-1-(1,5-dimethyl-1H-pyrazol-4-yl)ethyl]-6-[(1S)-2,2,2-trifluoro-1-hydroxy-1-methylethyl]-2-naphthamide] gave a pIC50 of 5.50.

As for `Cc1c(C(C)NC(=O)c2ccc3nc(C(C)(C)C(F)(F)F)ccc3c2)cnn1C1CCC1` (centres unmarked) [Example 17], the pIC50 was 6.91.

Turning to `Cc1c(C(C)NC(=O)c2ccc3nc(C(C)(C)C(F)(F)F)ccc3c2)cnn1CC(F)(F)F` (centres unmarked) [Example 5, N-(1-(5-methyl-1-(2,2,2-trifluoroethyl)-1H-pyrazol-4-yl)ethyl)-2-(2,2,2-trifluoro-1,1-dimethylethyl)quinoline-6-carboxamide], the pIC50 is 7.36.

In turn, `CC[C@@H](NC(=O)c1ccc2nc(C(C)(C)C(F)(F)F)ccc2c1)c1cnn(C)c1C` (single isomer, unassigned) [Example 8] gave a pIC50 of 7.18.

In turn, `Cc1c(C(C)NC(=O)c2ccc3nc(C(C)(C)C(F)(F)F)ccc3c2)cnn1CC(C)(C)O` (centres unmarked) [Example 12, N-(1-(1-(2-hydroxy-2-methylpropyl)-5-methyl-1H-pyrazol-4-yl)ethyl)-2-(2,2,2-trifluoro-1,1-dimethylethyl)quinoline-6-carboxamide] gave a pIC50 of 7.10.

`Cc1c([C@@H](C)NC(=O)c2ccc3nc(C(F)(F)F)ccc3c2)cnn1C` [Example 23, (R)-N-(1-(1,5-dimethyl-1H-pyrazol-4-yl)ethyl)-2-(trifluoromethyl) quinoline-6-carboxamide]: the pIC50 is 6.92.

For the molecule `Cc1n[nH]c(C)c1CNC(=O)c1ccc2cc(C(C)(C)C)ccc2c1` [Example 25, 6-tert-butyl-N-[(3,5-dimethyl-1H-pyrazol-4-yl)methyl]-2-naphthamide], the pIC50 was 6.93. This pIC50 and that of the molecule before are within 0.2 log units of each other.

The molecule `Cc1c(C(C)NC(=O)c2ccc3nc(C(C)(C)C(F)(F)F)ccc3c2)cnn1CCO` (centres unmarked) [Example 11, N-(1-(1-(2-hydroxyethyl)-5-methyl-1H-pyrazol-4-yl)ethyl)-2-(2,2,2-trifluoro-1,1-dimethylethyl)quinoline-6-carboxamide] gave a pIC50 of 7.79.

`C[C@@H](NC(=O)c1ccc2nc(C(C)(C)C(F)(F)F)ccc2c1)c1cnn(C)c1CO` [Example 4, (R)-N-(1-(5-(hydroxymethyl)-1-methyl-1H-pyrazol-4-yl)ethyl)-2-(2,2,2-trifluoro-1,1-dimethylethyl)quinoline-6-carboxamide] gave a pIC50 of 6.22. Against the preceding molecule, the pIC50 is 1.57 log units lower.

As to `CCC(NC(=O)c1ccc2nc(C(C)(C)C(F)(F)F)ccc2c1)c1cnn(C)c1C` (racemic) [Example 7, N-[1-(1,5-dimethyl-1H-pyrazol-4-yl)propyl]-2-(2,2,2-trifluoro-1,1-dimethylethyl)quinoline-6-carboxamide], the pIC50 was 6.84.

In turn, `Cc1c([C@@H](C)NC(=O)c2ccc3nc(C(C)(O)C(F)(F)F)ccc3c2)cnn1C` (some centres unmarked) [Example 14] showed a pIC50 of 7.20.

Take `COC(C)(c1ccc2cc(C(=O)NC(C)c3cnn(C)c3C)ccc2c1)C(F)(F)F` (centres unmarked) [Example 33, N-[1-(1,5-dimethyl-1H-pyrazol-4-yl)ethyl]-6-(2,2,2-trifluoro-1-methoxy-1-methylethyl)-2-naphthamide]: the pIC50 is 6.86. This pIC50 is 0.34 log units lower than that of the molecule before.

What is called pIC50 is −log10 of the IC50, conventionally taken in molar units.
